Entries after “also recorded” stand apart in the source; their conditions may differ.
Experiments:
C57BL/6J mice [1] = test: cocaine-induced locomotion in OCA-treated mice; type: in vivo, mouse; conditions: OCA 10 mg/kg orally, chronic, vs vehicle
Experimental: CPP was performed as previously described, with modifications (Graham D L, et al. (2013). Mol Psychiatry. 18(9):961-962). Briefly, mice were weighed and then acclimated to the testing room for at least 20 minutes prior to testing each day. During the first phase (pre-conditioning, day 1), mice were placed on the grid floor side of a two chamber apparatus. For 30 min, the mice had free access to both sides of the apparatus, which each contained their own distinct visual and tactile cues. During the second phase (conditioning, days 2-9), on alternate days mice were restricted to one side or the other of the apparatus for 30 min by use of a dividing door. Just prior to being placed in the chamber, each mouse was given an injection of either cocaine (20 mg/kg, i.p.) or saline (i.p.). […] Only the first 20 minutes of pre-conditioning and post-conditioning was used in the calculation of % CPP. […] Following 20 minutes of acclimation to the testing room, mice were initially placed in open field chambers for 60 min and ambulatory distance was recorded. […] Finally, mice were removed again and injected with cocaine (20 mg/kg, i.p.) before being placed back in the chamber for an additional 120 minutes. […] Jellies were composed of gelatin (10% w/v), sucralose (18.5% w/v), artificial strawberry flavoring (8% v/v); beta cyclodextrin (2% w/v) in water. […]

[2] = body weight during chronic OCA treatment; type: in vivo, mouse; conditions: OCA 10 mg/kg orally vs vehicle, throughout the 4-week study
Excerpt: Jellies were composed of gelatin (10% w/v), sucralose (18.5% w/v), artificial strawberry flavoring (8% v/v); beta cyclodextrin (2% w/v) in water. […] Jellies containing vehicle contained the same amount of beta cyclodextrin. Mice were given jellies by voluntary oral administration six days per week for four weeks. They were given the jellies between 3 pm and 6 pm by placing each mouse into an open field chamber containing the jelly. To ensure that mice consumed the jellies consistently, all mice were initially trained to eat jellies without drug for 5 days prior to drug/vehicle jelly administration. Mice in this group underwent behavioral testing for cocaine conditioned place preference after 2 weeks of chronic drug administration. During this time, drug administrations were continued until sacrifice.

[3] = tested on: AMPA receptor-mediated excitatory post-synaptic currents (EPSCs) in NAc medium spiny neurons; test: whole-cell electrophysiology, EPSC amplitude in ex vivo brain slices; type: cell-based, mouse; conditions: 10 μM OCA (FIG. 29B legend), perfused 10 min, holding at −70 mV, 50 μM picrotoxin
Experimental: Ex vivo mouse sagittal brain slices were prepared as previously described (Grueter, B. A., et al. Nat Neurosci 13:1519-1525 (2010)). Briefly, mice were acutely anesthetized using isoflurane and sacrificed by rapid decapitation. Brains were submerged in ice-cold sucrose dissecting solution (80 mM NaCl, 2.5 mM KCl, 7 mM MgCl2, 0.5 mM CaCl2, 1.25 mM NaH2PO4, 25 mM NaHCO3, 75 mM sucrose, and 25 mM glucose) and 250 μm thick slices were cut using the Leica 200VT Vibratome. Slices were allowed to recover for 10-15 min at 35° C. in an N-methyl D-glucamine (NMDG) based recovery solution (2.5 mM KCl, 20 mM HEPES, 1.2 mM NaH2PO4, 25 mM glucose, 93 mM NMDG, 30 mM NaHCO3, 5 mM sodium ascorbate, 3 mM sodium pyruvate, 10 mM MgSO4, and 0.5 mM CaCl2) before being transferred to a room temperature ACSF holding chamber for one hour prior to use. ASCF used for holding chamber and recordings contained 120 mM NaCl, 2.5 mM KCL, 1.5 mM MgCl2, 2.5 mM CaCl2, 1 mM NaH2PO4, 25 mM NaHCO3, and 10 mM glucose. […] Evoked responses were elicited by electrical stimulation via the Iso-flex stimulation isolator and recorded using the Axopatch Multiclamp 700B amplifier and Axon Digidata 1550 low-noise data acquisition digitizer. […] Peak EPSC amplitude was measured for the duration of the experiment and normalized to the first 10 min. […]

[4] = phase III clinical trial, hepatic steatosis; cited from earlier work
C57BL/6J mice [5] = test: cocaine conditioned place preference (CPP) in mice under chronic OCA; type: in vivo, mouse; conditions: OCA 10 mg/kg orally six days a week for four weeks vs vehicle, CPP started after 2 weeks, cocaine 20 mg/kg i.p.
Experimental: CPP was performed as previously described, with modifications (Graham D L, et al. (2013). Mol Psychiatry. 18(9):961-962). Briefly, mice were weighed and then acclimated to the testing room for at least 20 minutes prior to testing each day. During the first phase (pre-conditioning, day 1), mice were placed on the grid floor side of a two chamber apparatus. For 30 min, the mice had free access to both sides of the apparatus, which each contained their own distinct visual and tactile cues. During the second phase (conditioning, days 2-9), on alternate days mice were restricted to one side or the other of the apparatus for 30 min by use of a dividing door. […] During this time, the mouse's locomotor activity was measured by infrared sensors and used to determine cocaine-induced locomotor sensitization. […] Thus mice were given full access to both compartments and their time spent on each side was measured. % CPP was calculated as the time spent on the cocaine-paired side between post-conditioning minus the time spent on the cocaine-paired side during pre-conditioning divided by the time spent on the saline-paired side during pre-conditioning. […] Locomotor sensitization to cocaine was determined by the ambulatory distance on days when mice received cocaine during the conditioning phase of CPP. […]

FXR = conditions: Sayin 2013; Li 2013; cited from earlier work
Lipoprotein lipase (Lpl) = test: hepatic gene expression by RNA-seq; type: in vivo, mouse; conditions: liver
Experimental: The transcriptional sequencing was implemented with modifications of the standard Illumina methods (Bentley, D. R. et al. Nature 456, 53-59 (2008)). Sequencing reactions were performed using the Illumina HiSeq (v3 chemistry). Initial QC quantification of the extracted total RNA was done by using Qubit Fluorometer (Invitrogen). Agilent 2100 Bioanalyzer was used to check the quality of the extracted RNA from both the samples. About 30 ng of total RNA was amplified using the NuGEN Technologies Ovation RNA amplification kit optimized for RNA sequencing. The output is double-stranded complementary DNA (cDNA) that was sheared using the Covaris instrument to an average insert size of 300 bp. The sheared DNA entered the standard Illumina TruSeq library preparation protocol at the standard end-repair step. […] Following LM-PCR, the samples were purified and assessed for quality using the Agilent Bioanalyzer. Final quantitation was performed using the KAPA Biosystems Kapa Library Quant kit. […]
Multiple stages of quality control (QC) on sequencing data was carried out. […] Raw data were aligned with TopHat 2 against mouse MM10 genome, and read count data were obtained using HTSeq, DESeq (Anders, S. & Huber, W. Genome Biol. 11, R106 (2010)), edgeR (Robinson, M. D., et al. Bioinformatics 26, 139-140 (2010)) and baySeq (Hardcastle, T. J. & Kelly, K. A. BMC Bioinformatics 11, 422 (2010)). […]

SMILES: CC[C@H]1[C@@H](O)[C@@H]2[C@H](CC[C@]3(C)[C@@H]([C@H](C)CCC(=O)O)CC[C@@H]23)[C@@]2(C)CC[C@@H](O)C[C@@H]12 [OCA, (4R)-4-[(3R,5S,6R,7R,8S,9S,10S,13R,14S,17R)-6-Ethyl-3,7-dihydroxy-10,13-dimethyl-2,3,4,5,6,7,8,9,11,12,14,15,16,17-tetradecahydro-1H-cyclopenta[a]phenanthren-17-yl]pentanoic acid]
- cocaine-induced locomotion (C57BL/6J mice [1]): impaired
- body weight [2]: No differences
- EPSC amplitude in NAc medium spiny neurons [3]: robust depression; also recorded: reduced
- clinical efficacy [4]: clinical efficacy
- safety profile [4]: excellent safety profile
- cocaine CPP (preference for the cocaine-paired chamber, % CPP) (C57BL/6J mice [5]): decreased; also recorded: reduced preference
- cocaine CPP (preference for the cocaine-paired chamber, % CPP) (C57BL/6J mice [5]; listed as 6-ECDCA): significantly reduced

SMILES: C[C@H](CCC(=O)NCCS(=O)(=O)O)[C@H]1CC[C@H]2[C@@H]3[C@@H](O)[C@@H](O)[C@@H]4C[C@H](O)CC[C@]4(C)[C@H]3CC[C@]12C [TβMCA, 5β-cholanic acid-3α,6β,7β-triol-N-[2-sulphoethyl]-amide]
- FXR antagonist activity (FXR): potent FXR antagonist

SMILES: COC(=O)/C=C/c1cccc(N(Cc2ccc(-c3ccc(N(C)C)cc3)cc2)C(=O)C2CCCCC2)c1 [fexaramine]
- Lpl hepatic expression, increase relative to DIO controls (Lipoprotein lipase (Lpl)): 2.4 fold

Source: patent publication US10064876B2, “Bile acid receptor agonism for treating addiction” (Vanderbilt University, priority 2015, dated 2018)
